The target in the assay is T1, VEGFR2 (vascular endothelial growth factor receptor 2) (Homo sapiens, UniProt P35968).
T1 construct: gene KDR
Kind of assay: SPR (Biacore T200, VEGFR2 immobilized on CM5 chip); also ELISA-based kinase assay IC50 […]. In kind it is binding.

T1 sequence (P35968 20-1356): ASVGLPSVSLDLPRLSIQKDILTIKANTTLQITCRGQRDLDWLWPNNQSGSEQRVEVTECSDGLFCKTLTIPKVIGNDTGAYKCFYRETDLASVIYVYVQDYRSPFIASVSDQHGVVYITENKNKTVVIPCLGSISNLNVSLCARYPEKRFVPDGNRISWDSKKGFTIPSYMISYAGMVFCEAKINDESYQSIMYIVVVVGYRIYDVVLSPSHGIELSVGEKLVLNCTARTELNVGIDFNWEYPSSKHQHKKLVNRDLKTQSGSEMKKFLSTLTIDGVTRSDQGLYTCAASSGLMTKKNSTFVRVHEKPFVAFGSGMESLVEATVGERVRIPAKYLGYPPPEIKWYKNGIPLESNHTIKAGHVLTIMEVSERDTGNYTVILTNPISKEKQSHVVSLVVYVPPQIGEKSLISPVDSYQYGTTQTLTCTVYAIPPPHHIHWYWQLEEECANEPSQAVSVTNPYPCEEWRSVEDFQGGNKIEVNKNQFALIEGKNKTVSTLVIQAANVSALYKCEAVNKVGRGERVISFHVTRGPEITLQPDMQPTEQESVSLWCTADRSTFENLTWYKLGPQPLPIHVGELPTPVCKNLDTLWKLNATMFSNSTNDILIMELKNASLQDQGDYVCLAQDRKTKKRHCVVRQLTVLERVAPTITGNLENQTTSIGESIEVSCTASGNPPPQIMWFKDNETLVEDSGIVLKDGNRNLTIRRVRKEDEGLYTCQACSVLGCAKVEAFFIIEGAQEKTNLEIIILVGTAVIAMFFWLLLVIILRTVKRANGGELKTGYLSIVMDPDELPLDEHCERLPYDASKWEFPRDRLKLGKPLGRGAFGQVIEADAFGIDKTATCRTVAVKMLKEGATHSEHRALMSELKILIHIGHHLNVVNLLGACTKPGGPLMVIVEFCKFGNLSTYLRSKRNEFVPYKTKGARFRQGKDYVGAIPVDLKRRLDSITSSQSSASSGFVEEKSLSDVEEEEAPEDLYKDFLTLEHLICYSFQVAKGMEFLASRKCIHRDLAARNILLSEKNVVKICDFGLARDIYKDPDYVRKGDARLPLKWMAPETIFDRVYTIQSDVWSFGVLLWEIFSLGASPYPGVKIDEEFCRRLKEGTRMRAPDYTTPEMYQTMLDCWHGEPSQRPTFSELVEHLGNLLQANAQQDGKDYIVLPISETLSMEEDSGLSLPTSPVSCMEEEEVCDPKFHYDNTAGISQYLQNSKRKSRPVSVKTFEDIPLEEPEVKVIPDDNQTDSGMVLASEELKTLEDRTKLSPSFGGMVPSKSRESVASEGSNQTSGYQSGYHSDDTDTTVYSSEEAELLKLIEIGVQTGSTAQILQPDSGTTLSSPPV

`O=c1c2ccccc2nc2n1CCc1c-2[nH]c2ccccc12` [rutaecarpine] had a Kd of 471 nM.
